# Results reported in patent publication EP2681209B1, “COMPOUNDS AND METHODS FOR THE TREATMENT OF PAIN AND OTHER DISORDERS” (Aquilus Pharmaceuticals, Inc, priority 2011, dated 2012).
# “Also recorded” adds a separate entry of the source.
# Tests used:
# CD-1 mice = experiment: Naloxone-precipitated morphine withdrawal mouse study, intrathecal administration; type: in vivo; details: i.t. 10 µl/mouse every 8 hours for 2.5 days with escalating IP morphine; naloxone 1 mg/kg s.c.; compared to control and vehicle
# Excerpt: One can measure the effects of intrathecal (i.t.) or intraparitoneal (i.p.) administration of a matrix metallorproteinase (MMP) inhibitor in a mouse model of morphine analgesia, tolerance and withdrawal. The purpose of which is to measure the effects of a MMP inhibitor on 1) attenuating morphine tolerance in mice and 2) withdrawal behavior in naloxone-precipitated morphine withdrawal in mice. The animal model which was developed in the 1960's and refined in the early 1970's utilizes the opioid antagonist, naloxone to rapidly block the µ-opioid receptor to "precipitate" withdrawal behavior in rodents (Zachariou, V. et al.; Essential role for RGS9 in opiate action, PNAS, 100(23), p 13656-13661, (2003)). […]
# Drug Administration & Morphine withdrawal Studies: The matrix metalloproteinase (MMP) inhibitors were dissolved in phosphate buffered saline (PBS) and dimethylsulfoxide (DMSO) and diluted in PBS (final concentration of DMSO for intrathecal administration was 10%). […] Two hours after the last morphine injection, naloxone (1 mg/kg) was administered s.c. Withdrawal behaviors were then monitored for 30 min, 1 hr after the naloxone injection. […]
# MMP inhibitor effects on morphine withdrawal For testing the morphine withdrawal-like behavioral signs following intrathecal MMP inhibitor administration, the withdrawal symptoms were monitored for 30 minutes 1-2 h after naloxone administration. […]
# MMP-9 = experiment: Gelatin zymography of mouse spinal cord for MMP-9 rebound effect; type: in vivo, mice
# Excerpt: There were three groups in the study comprising six mice for each group (Naive, control and compound 10 groups).
structure (smiles),measurement,setting,value
"[2H]C([2H])([2H])c1ccc(C#Cc2ccc(S(=O)(=O)N[C@H](Cc3c[nH]c4ccccc34)C(=O)O)s2)cc1 [Compound 10, (R)-3-(1H-Indol-3-yl)-2-[5-(4-trideuteromethyl-phenylethynyl)-thiophene-2-sulfonylamino]-propionic acid-(D3, 98%)]","morphine withdrawal behavior (behavioral signs, overall opiate withdrawal score)",CD-1 mice,able to reduce overall morphine withdrawal behavior; also recorded: significantly attenuates behavioral signs of naloxone-precipitated morphine withdrawal
same,MMP-9 levels in spinal cord,"MMP-9; 0.5 and 2 hours after naloxone precipitated withdrawal and cessation of compound administration, versus control",stayed the same or were slightly lower than the control
same,MMP-9 rebound effect due to discontinuation,MMP-9; after discontinuation of compound in naloxone precipitated withdrawal model,No evidence of a MMP-2 and/or MMP-9 rebound effect
